Here are results for one compound from US20240024403A1, “Compositions and Methods for Managing Weight” (Unigen, Inc., priority 2012, published 2024).

The assay is described as follows: 14-day study in high-fat-diet fed C57BL/6J mice. Type of assay: in vivo. The note with it: 30 mg/kg daily oral, 14 days. An excerpt: A 14-day study was used to evaluate the effect of Mutamba EtOH extract fraction 84/F6 on body weight gain in high-fat-diet (HFD) fed C57BL/6J mice. Male C57BL/6J mice at the age of 6 weeks were purchased from Charles River Laboratories (Wilmington, MA) and acclimated for one week. On the day 0 (treatment start), body weights were taken for all the mice and randomly assigned to a group of four treatment groups as follows: (1) 8 mice/group received positive control=Alli; (2) 15 mice/group received Mutamba fraction 84/F6; (3) 8 mice/group received vehicle only (0.5% carboxymethyl cellulose) given to HFD control; and (4) 8 mice/group received vehicle only given to untreated normal diet control. Mice received a daily oral dose of Alli at 30 mg/kg and Mutamba 84/F6 at 1 g/kg for 14 days. Once mice received their first respective dose, they were provided ad libitum a 60% kcal high fat-diet, except for the normal diet group. Body weights were taken daily for the duration of study except on weekends. […] Blood glucose levels were measured using the Contour blood glucose monitoring kit (Bayer Health Care). Total triglyceride and cholesterol levels were measured using the CardioChek Analyzer with PTS panel test strips (Polymer Technology System, Inc, Indianapolis, IN).

For `CCCCCCCCCCC[C@@H](C[C@@H]1OC(=O)[C@H]1CCCCCC)OC(=O)[C@H](CC(C)C)NC=O` [ORI, orlistat], the “body weight gain vs vehicle treated HFD group” value is “decrease in weight gain only on day 14 of treatment” and the “fasting blood glucose, total cholesterol, triglyceride vs vehicle treated HFD group” value is given as “statistically significant higher levels of fasting triglyceride”.
